Reference: US12492188B2, “1H-benzo[D]imidazole derivatives as TLR9 inhibitors for the treatment of fibrosis” (BRISTOL-MYERS SQUIBB COMPANY, priority 2020, dated 2025)
Where two headings read alike, the source gives them in different places.

Experiments:
Format in all cases: cell-based
human TLR9 = biological target: T1, human TLR9 (Homo sapiens, UniProt Q9NR96); experiment: TLR9 inhibition reporter assay (HEK-Blue cells, secreted embryonic alkaline phosphatase reporter)
T1 construct: host or cells: HEK-Blue cells (HEK293-derived reporter line)
T1 sequence (Q9NR96 26-1032): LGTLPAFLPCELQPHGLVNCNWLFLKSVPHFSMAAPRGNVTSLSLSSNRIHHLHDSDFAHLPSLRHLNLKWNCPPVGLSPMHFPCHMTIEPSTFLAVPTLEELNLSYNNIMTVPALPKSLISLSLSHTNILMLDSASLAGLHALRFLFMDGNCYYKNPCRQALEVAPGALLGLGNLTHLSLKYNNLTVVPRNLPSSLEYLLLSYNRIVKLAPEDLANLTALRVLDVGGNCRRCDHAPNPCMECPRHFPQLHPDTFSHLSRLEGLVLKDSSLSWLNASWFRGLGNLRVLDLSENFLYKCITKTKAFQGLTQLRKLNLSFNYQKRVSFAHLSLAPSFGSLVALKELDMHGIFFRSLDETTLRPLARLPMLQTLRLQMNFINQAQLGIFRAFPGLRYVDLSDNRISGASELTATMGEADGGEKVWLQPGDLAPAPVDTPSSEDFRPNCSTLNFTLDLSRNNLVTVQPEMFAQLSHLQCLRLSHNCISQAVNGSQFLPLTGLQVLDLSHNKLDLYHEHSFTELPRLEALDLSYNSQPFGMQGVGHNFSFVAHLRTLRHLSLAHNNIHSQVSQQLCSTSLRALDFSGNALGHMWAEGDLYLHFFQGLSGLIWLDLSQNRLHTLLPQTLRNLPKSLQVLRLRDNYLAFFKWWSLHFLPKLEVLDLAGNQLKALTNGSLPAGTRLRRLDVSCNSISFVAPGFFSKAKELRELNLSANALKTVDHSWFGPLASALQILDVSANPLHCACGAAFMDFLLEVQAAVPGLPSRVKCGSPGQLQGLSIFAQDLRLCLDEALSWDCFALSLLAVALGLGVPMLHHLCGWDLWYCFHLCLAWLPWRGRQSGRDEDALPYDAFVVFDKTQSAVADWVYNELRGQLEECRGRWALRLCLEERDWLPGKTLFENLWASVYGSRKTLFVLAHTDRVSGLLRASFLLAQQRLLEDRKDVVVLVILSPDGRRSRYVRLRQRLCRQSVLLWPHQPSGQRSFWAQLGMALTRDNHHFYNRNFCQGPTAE
Procedure, shortened: (§1)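 Read-out is SEAP colour from HEK-Blue Detection medium after 22 h at 37 °C, converted to percent inhibition between agonist-plus-DMSO and reference-inhibitor wells. Receptor-overexpressing HEK-Blue cells received compound over 0.05 nM–50 μM for 30 min before agonist: gardiquimod 7.5 μM for TLR7, R848 15.9 μM for TLR8, ODN2006 5 nM for TLR9.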

human TLR7 = biological target: T2, human TLR7 (Homo sapiens, UniProt Q9NYK1); experiment: TLR7 inhibition reporter assay (HEK-Blue cells, secreted embryonic alkaline phosphatase reporter); settings: HEK-Blue cells overexpressing human TLR7, stimulated with gardiquimod 7.5 μM; read-out: TLR 7 IC50
T2 construct: host or cells: HEK-Blue cells (HEK293-derived reporter line)
T2 sequence (Q9NYK1 27-1049): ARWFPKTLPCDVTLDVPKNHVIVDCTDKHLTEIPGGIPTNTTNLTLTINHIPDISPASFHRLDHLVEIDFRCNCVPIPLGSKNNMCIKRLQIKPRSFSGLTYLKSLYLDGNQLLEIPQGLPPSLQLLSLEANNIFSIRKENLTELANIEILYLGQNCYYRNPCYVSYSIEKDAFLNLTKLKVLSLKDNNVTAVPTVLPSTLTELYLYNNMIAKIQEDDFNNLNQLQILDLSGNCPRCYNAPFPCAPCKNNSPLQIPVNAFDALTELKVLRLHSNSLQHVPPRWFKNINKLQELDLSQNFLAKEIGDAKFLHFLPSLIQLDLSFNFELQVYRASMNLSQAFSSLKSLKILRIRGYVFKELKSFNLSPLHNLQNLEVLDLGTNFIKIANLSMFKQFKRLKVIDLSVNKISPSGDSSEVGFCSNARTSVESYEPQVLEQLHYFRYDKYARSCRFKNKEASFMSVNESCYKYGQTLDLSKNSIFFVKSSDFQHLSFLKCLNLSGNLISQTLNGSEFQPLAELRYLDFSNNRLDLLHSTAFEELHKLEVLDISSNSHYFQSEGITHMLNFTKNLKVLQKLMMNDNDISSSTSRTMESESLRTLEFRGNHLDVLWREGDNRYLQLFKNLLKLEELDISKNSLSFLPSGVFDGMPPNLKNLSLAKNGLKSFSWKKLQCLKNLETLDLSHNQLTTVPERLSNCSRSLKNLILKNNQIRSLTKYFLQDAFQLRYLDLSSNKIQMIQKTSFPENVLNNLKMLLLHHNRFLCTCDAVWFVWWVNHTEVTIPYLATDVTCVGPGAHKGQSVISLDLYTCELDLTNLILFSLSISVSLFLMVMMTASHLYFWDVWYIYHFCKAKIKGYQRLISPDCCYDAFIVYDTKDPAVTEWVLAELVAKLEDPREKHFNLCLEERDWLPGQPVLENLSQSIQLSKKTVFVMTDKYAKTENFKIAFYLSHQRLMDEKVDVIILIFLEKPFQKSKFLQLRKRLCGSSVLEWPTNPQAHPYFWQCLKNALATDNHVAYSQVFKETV
Procedure, shortened: as §1

human TLR8 = biological target: T3, human TLR8 (Homo sapiens, UniProt Q9NR97); experiment: TLR8 inhibition reporter assay (HEK-Blue cells, secreted embryonic alkaline phosphatase reporter); settings: HEK-Blue cells overexpressing human TLR8, stimulated with R848 15.9 μM; read-out: TLR 8 IC50
T3 construct: host or cells: HEK-Blue cells (HEK293-derived reporter line)
T3 sequence (Q9NR97 27-1041): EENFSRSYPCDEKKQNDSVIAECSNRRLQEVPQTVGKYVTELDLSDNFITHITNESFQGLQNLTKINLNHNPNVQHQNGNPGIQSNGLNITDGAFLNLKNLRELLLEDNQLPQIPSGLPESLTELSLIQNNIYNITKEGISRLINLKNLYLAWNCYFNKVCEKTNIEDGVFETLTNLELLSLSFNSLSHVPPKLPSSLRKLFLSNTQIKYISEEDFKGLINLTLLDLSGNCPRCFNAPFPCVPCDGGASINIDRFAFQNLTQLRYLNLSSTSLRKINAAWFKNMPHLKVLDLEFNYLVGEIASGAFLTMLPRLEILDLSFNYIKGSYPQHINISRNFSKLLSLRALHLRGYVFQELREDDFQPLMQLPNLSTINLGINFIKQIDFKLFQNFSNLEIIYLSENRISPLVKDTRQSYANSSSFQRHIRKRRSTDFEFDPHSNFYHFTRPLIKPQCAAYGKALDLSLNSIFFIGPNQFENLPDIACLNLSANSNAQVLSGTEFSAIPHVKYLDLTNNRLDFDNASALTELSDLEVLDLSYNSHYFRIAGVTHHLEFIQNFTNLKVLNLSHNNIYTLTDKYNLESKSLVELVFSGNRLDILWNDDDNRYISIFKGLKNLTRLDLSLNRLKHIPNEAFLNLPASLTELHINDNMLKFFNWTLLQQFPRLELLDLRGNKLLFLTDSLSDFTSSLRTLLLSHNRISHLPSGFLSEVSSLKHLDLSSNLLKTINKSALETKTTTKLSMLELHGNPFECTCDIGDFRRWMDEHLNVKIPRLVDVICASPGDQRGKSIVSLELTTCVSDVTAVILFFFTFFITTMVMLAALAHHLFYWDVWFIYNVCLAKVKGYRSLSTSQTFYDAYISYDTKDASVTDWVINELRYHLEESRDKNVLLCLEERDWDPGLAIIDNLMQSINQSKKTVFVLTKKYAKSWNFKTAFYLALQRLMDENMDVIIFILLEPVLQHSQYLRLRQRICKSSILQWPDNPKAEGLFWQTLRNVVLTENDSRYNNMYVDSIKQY
Procedure, shortened: as §1

[1] = HEK-Blue cells overexpressing human TLR9, stimulated with ODN2006 5 nM, read-out: TLR 9 IC50
[2] = HEK-Blue cells overexpressing human TLR9, stimulated with ODN2006 5 nM, 22 hour incubation, reporter readout

SMILES	IC50 (human TLR9; [1]) [nM]	IC50 (human TLR9; HEK-Blue human TLR9 reporter cells) [nM]	IC50 (human TLR7) [µM]	IC50 (human TLR8) [µM]	IC50 (human TLR9; [2]) [nM]	IC50 (human TLR9) [nM]
Cc1cc(C2CCN(C3CCN(C4CC4)CC3)CC2)cc2c1nc(-c1ccc(S(C)(=O)=O)cc1)n2C [Example 53, 6-(1′-cyclopropyl-[1,4′-bipiperidin]-4-yl)-1,4-dimethyl-2-(4-(methylsulfonyl)phenyl)-1H-benzo[d]imidazole]	421	–	24	> 50	420	–
COCCN1C2CCC1CC(N1CCC(c3ccc4c(nc(-c5ccc(S(C)(=O)=O)cc5)n4C)c3F)CC1)C2 (single isomer, unassigned) [Example 200, 4-fluoro-5-(1-(8-(2-methoxyethyl)-8-azabicyclo[3.2.1]octan-3-yl)piperidin-4-yl)-1-methyl-2-(4-(methylsulfonyl)phenyl)-1H-benzo[d]imidazole]	380	–	47.8	> 50	–	380
COCCN1C2CCC1CC(N1CCC(c3ccc4c(nc(-c5ccc(S(C)(=O)=O)cc5)n4C)c3F)CC1)C2 (single isomer, unassigned) [Example 199, 4-fluoro-5-(1-(8-(2-methoxyethyl)-8-azabicyclo[3.2.1]octan-3-yl)piperidin-4-yl)-1-methyl-2-(4-(methylsulfonyl)phenyl)-1H-benzo[d]imidazole]	75	–	25.6	> 50	–	75
Cn1c(-c2ccc(S(C)(=O)=O)cc2)nc2ccc(C3CCN(C4CCN(CC5CC5)CC4)CC3)c(F)c21 [Example 261, 6-(1′-(cyclopropylmethyl)-[1,4′-bipiperidin]-4-yl)-7-fluoro-1-methyl-2-(4-(methylsulfonyl)phenyl)-1H-benzo[d]imidazole]	154	–	7.9	> 50	–	150
CC(C)N1C2CCC1CC(N1CCC(c3cc(F)c4c(c3)nc(-c3ccc(S(C)(=O)=O)cc3)n4C)CC1)C2 (single isomer, unassigned) [Example 93, 7-fluoro-5-(1-(8-isopropyl-8-azabicyclo[3.2.1]octan-3-yl)piperidin-4-yl)-1-methyl-2-(4-(methylsulfonyl)phenyl)-1H-benzo[d]imidazole]	–	–	> 50	> 50	650	–
CCOP(=O)(OCC)c1ccc(-c2nc3c(C)cc(C4CCN(C5CCN(C(C)C)CC5)CC4)cc3n2C)cc1 [Example 420, diethyl(4-(6-(1′-isopropyl-[1,4′-bipiperidin]-4-yl)-1,4-dimethyl-1H-benzo[d]imidazol-2-yl)phenyl)phosphonate]	136	–	> 50	42.2	140	–
Cn1c(-c2ccc(S(C)(=O)=O)cc2)nc2ccc(C3CCN(C4CCN(C5CCC5)CC4)CC3)c(F)c21 [Example 262, 6-(1′-cyclobutyl-[1,4′-bipiperidin]-4-yl)-7-fluoro-1-methyl-2-(4-(methylsulfonyl)phenyl)-1H-benzo[d]imidazole]	171	–	14.1	> 50	–	170

Results, then the compound that gave them:

IC50 (human TLR9; [1]) [nM]	IC50 (human TLR9; HEK-Blue human TLR9 reporter cells) [nM]	IC50 (human TLR7) [µM]	IC50 (human TLR8) [µM]	IC50 (human TLR9; [2]) [nM]	IC50 (human TLR9) [nM]	SMILES
36	36	1.9	> 50	–	–	CS(=O)(=O)c1ccc(-c2nc3c(F)cc(C4CCN(C5CCN(C6CCOCC6)CC5)CC4)cc3n2C2CC2)cc1 [Example 321, 1-cyclopropyl-4-fluoro-2-(4-(methylsulfonyl)phenyl)-6-(1′-(tetrahydro-2H-pyran-4-yl)-[1,4′-bipiperidin]-4-yl)-1H-benzo[d]imidazole]
278	–	> 50	> 50	–	280	Cn1c(-c2ccc(S(C)(=O)=O)cc2)nc2cc(C3CCN(C4CC5CCC(C4)N5C4COC4)CC3)c(F)cc21 (single isomer, unassigned) [Example 253, 6-fluoro-1-methyl-2-(4-(methylsulfonyl)phenyl)-5-(1-(8-(oxetan-3-yl)-8-azabicyclo[3.2.1]octan-3-yl)piperidin-4-yl)-1H-benzo[d]imidazole]
72	–	> 50	> 50	–	72	Cn1c(-c2ccc(S(C)(=O)=O)cc2)nc2cc(C3CCN(C4CC5CCC(C4)N5C4CCOCC4)CC3)c(F)cc21 (single isomer, unassigned) [Example 255, 6-fluoro-1-methyl-2-(4-(methylsulfonyl)phenyl)-5-(1-(8-(tetrahydro-2H-pyran-4-yl)-8-azabicyclo[3.2.1]octan-3-yl)piperidin-4-yl)-1H-benzo[d]imidazole]
110	–	36.7	> 50	–	110	Cn1c(-c2ccc(S(C)(=O)=O)cc2)nc2cc(C3CCN(C4CC5CCC(C4)N5CC4CC4)CC3)c(F)cc21 (single isomer, unassigned) [Example 250, 5-(1-(8-(cyclopropylmethyl)-8-azabicyclo[3.2.1]octan-3-yl)piperidin-4-yl)-6-fluoro-1-methyl-2-(4-(methylsulfonyl)phenyl)-1H-benzo[d]imidazole]
